According to ChEMBL document CHEMBL1201862, “PubChem BioAssay data set” (2004):
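Cultured in 96-well plates, cells were exposed to test compound for 48 hours across five concentrations. Abbreviation: GI50, concentration required for 50% inhibition of growth.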 Calls of active or inactive are those of the source. No stated cut-off is given here; in the data, active = GI50 up to about 1.1 µM and inactive = higher.

Tests used:
Assay in all cases: inhibition of tumour cell growth, NCI panel, 48 h
786-0 = tested on: 786-0
EKVX = tested on: EKVX
HCT-116 = tested on: HCT-116
IGROV-1 = tested on: IGROV-1
K562 = tested on: K562
KM12 = tested on: KM12
LOX IMVI = tested on: LOX IMVI
M14 = tested on: M14
MOLT-4 = tested on: MOLT-4
NCI-H460 = tested on: NCI-H460
SK-MEL-5 = tested on: SK-MEL-5
TK-10 = tested on: TK-10
U-251 = tested on: U-251
UACC-257 = tested on: UACC-257
A498 = tested on: A498
SNB-75 = tested on: SNB-75

Measured: GI50

CC(=O)/C(=C\C1=CCCO1)C(=O)Nc1ccccc1C
inactive: 786-0 > 100 µM | EKVX > 100 µM | HCT-116 > 100 µM | IGROV-1 > 100 µM | K562 > 100 µM | KM12 > 100 µM | LOX IMVI > 100 µM | M14 > 100 µM | MOLT-4 > 100 µM | NCI-H460 > 100 µM | SK-MEL-5 > 100 µM | TK-10 > 100 µM | U-251 > 100 µM | UACC-257 > 100 µM

CC(=O)CCn1ncc(Cl)c(Cl)c1=O
inactive: 786-0 20.5 µM | A498 24.9 µM | EKVX 18.6 µM | HCT-116 14.5 µM | IGROV-1 18.7 µM | K562 3.51 µM | KM12 17.7 µM | LOX IMVI 15.6 µM | M14 15.7 µM | MOLT-4 20.6 µM | NCI-H460 20.2 µM | SK-MEL-5 19.2 µM | SNB-75 34.4 µM | TK-10 48.6 µM | UACC-257 16.5 µM

N#CC(C(=O)C(=O)NCCCNC(=O)C(=O)C(C#N)c1ccccc1)c1ccccc1 (configuration not stated)
inactive: 786-0 > 100 µM | A498 > 100 µM | EKVX > 100 µM | HCT-116 > 100 µM | IGROV-1 > 100 µM | K562 > 100 µM | KM12 > 100 µM | LOX IMVI > 100 µM | M14 > 100 µM | MOLT-4 > 100 µM | NCI-H460 > 100 µM | SK-MEL-5 > 100 µM | SNB-75 30.1 µM | TK-10 > 100 µM | U-251 > 100 µM | UACC-257 > 100 µM

O=[N+]([O-])c1cc(I)cc(/C=N/NS(=O)(=O)c2ccc(F)cc2)c1O
inactive: 786-0 28.4 µM | A498 36.1 µM | EKVX 30.7 µM | HCT-116 22.9 µM | IGROV-1 33.7 µM | K562 21.6 µM | KM12 25.5 µM | LOX IMVI 27 µM | M14 27.5 µM | MOLT-4 24.7 µM | NCI-H460 21.9 µM | SK-MEL-5 22.5 µM | SNB-75 25 µM | TK-10 28.6 µM | U-251 22.4 µM | UACC-257 25.2 µM

CCOC(=O)C(=O)Nc1c(C(C)C)cccc1C(C)C
inactive: 786-0 > 100 µM | A498 > 100 µM | EKVX > 100 µM | HCT-116 > 100 µM | IGROV-1 > 100 µM | KM12 > 100 µM | M14 > 100 µM | MOLT-4 > 100 µM | NCI-H460 > 100 µM | SK-MEL-5 > 100 µM | SNB-75 > 100 µM | TK-10 > 100 µM | U-251 > 100 µM | UACC-257 > 100 µM

CC1=N/C(=C\c2cccc([N+](=O)[O-])c2)C(=O)O1
inactive: 786-0 > 100 µM | A498 > 100 µM | EKVX > 100 µM | HCT-116 > 100 µM | IGROV-1 > 100 µM | K562 > 100 µM | KM12 > 100 µM | M14 > 100 µM | MOLT-4 > 100 µM | NCI-H460 > 100 µM | SK-MEL-5 > 100 µM | SNB-75 15.1 µM | TK-10 > 100 µM | U-251 > 100 µM | UACC-257 > 100 µM

[O-][S+]1c2ccccc2N=C(c2ccc3ccccc3c2)CC1c1ccccc1F (configuration not stated)
inactive: 786-0 > 100 µM | A498 22.3 µM | EKVX > 100 µM | IGROV-1 > 100 µM | K562 78.2 µM | KM12 > 100 µM | LOX IMVI > 100 µM | M14 > 100 µM | MOLT-4 48.2 µM | NCI-H460 > 100 µM | SK-MEL-5 > 100 µM | SNB-75 20.5 µM | TK-10 > 100 µM | U-251 > 100 µM | UACC-257 > 100 µM

CC(C)c1cccc(C(C)C)c1NC1=CC(=O)C(=O)c2ccccc21
inactive: 786-0 > 100 µM | A498 > 100 µM | EKVX > 100 µM | HCT-116 > 100 µM | IGROV-1 > 100 µM | K562 > 100 µM | KM12 > 100 µM | LOX IMVI 36.3 µM | M14 > 100 µM | MOLT-4 58.5 µM | NCI-H460 > 100 µM | SK-MEL-5 > 100 µM | TK-10 > 100 µM | U-251 > 100 µM | UACC-257 67 µM

COc1ccc(CCn2c(=O)c3ccccc3n(C)c2=O)cc1
inactive: 786-0 67.1 µM | A498 62.2 µM | EKVX 60.4 µM | HCT-116 38.7 µM | IGROV-1 > 100 µM | K562 4.21 µM | KM12 8.77 µM | M14 26.1 µM | MOLT-4 33.8 µM | NCI-H460 60.1 µM | SK-MEL-5 31 µM | SNB-75 25.9 µM | TK-10 54.8 µM | U-251 66.8 µM | UACC-257 61.7 µM

Cc1c2n(c3ccccc13)CC1C2N(C)OC1(C)C (configuration not stated)
inactive: 786-0 > 100 µM | EKVX > 100 µM | HCT-116 > 100 µM | K562 > 100 µM | KM12 > 100 µM | M14 > 100 µM | MOLT-4 > 100 µM | NCI-H460 > 100 µM | SK-MEL-5 > 100 µM | SNB-75 81.5 µM | U-251 > 10 µM | UACC-257 > 100 µM

COc1cc(C(N)=O)c(OC)c(OC)c1OC
inactive: 786-0 > 100 µM | A498 > 100 µM | EKVX > 100 µM | HCT-116 > 100 µM | IGROV-1 > 100 µM | K562 > 100 µM | KM12 > 100 µM | LOX IMVI > 100 µM | M14 > 100 µM | MOLT-4 > 100 µM | NCI-H460 > 100 µM | SK-MEL-5 > 100 µM | SNB-75 69.8 µM | TK-10 > 100 µM | U-251 > 100 µM

Cc1nc2cc3nc4ccccc4c(O)c3cc2s1
inactive: 786-0 > 100 µM | A498 > 100 µM | EKVX > 100 µM | HCT-116 > 100 µM | IGROV-1 > 100 µM | K562 > 100 µM | KM12 > 100 µM | M14 > 100 µM | MOLT-4 > 100 µM | NCI-H460 > 100 µM | SK-MEL-5 > 100 µM | SNB-75 > 100 µM | TK-10 > 100 µM | U-251 > 100 µM | UACC-257 > 100 µM

O=[N+]([O-])c1ccc(NSc2ccccc2)cc1
inactive: 786-0 16.4 µM | A498 2.37 µM | EKVX 30 µM | HCT-116 25.2 µM | IGROV-1 10.7 µM | K562 23.6 µM | KM12 27.8 µM | LOX IMVI 13.1 µM | M14 20.5 µM | MOLT-4 10.8 µM | NCI-H460 18.3 µM | SK-MEL-5 31.8 µM | TK-10 44.7 µM | U-251 29.7 µM | UACC-257 29.3 µM

O=C(O)c1c[nH]c2c(ccc3ncccc32)c1=O
inactive: 786-0 > 100 µM | A498 > 100 µM | EKVX > 100 µM | HCT-116 > 100 µM | IGROV-1 > 100 µM | K562 > 100 µM | KM12 > 100 µM | LOX IMVI > 100 µM | M14 > 100 µM | MOLT-4 > 100 µM | NCI-H460 > 100 µM | SK-MEL-5 > 100 µM | SNB-75 > 100 µM | TK-10 > 100 µM | U-251 > 100 µM

CN1CCn2c(Br)ccc2C1=O
inactive: 786-0 > 100 µM | A498 > 100 µM | EKVX > 100 µM | HCT-116 > 100 µM | IGROV-1 > 100 µM | K562 > 100 µM | KM12 > 100 µM | LOX IMVI > 100 µM | M14 > 100 µM | MOLT-4 > 100 µM | NCI-H460 > 100 µM | TK-10 > 100 µM | U-251 > 100 µM | UACC-257 > 100 µM

CC(=O)OCC1OC(OC2C(CSC3OC(COC(C)=O)C(OC(C)=O)C(OC(C)=O)C3OC(C)=O)OC(OC(C)=O)C(OC(C)=O)C2OC(C)=O)C(OC(C)=O)C(OC(C)=O)C1OC(C)=O (configuration not stated)
inactive: 786-0 > 100 µM | EKVX > 100 µM | HCT-116 > 100 µM | IGROV-1 > 100 µM | K562 > 100 µM | KM12 > 100 µM | LOX IMVI > 100 µM | M14 > 100 µM | MOLT-4 > 100 µM | NCI-H460 > 100 µM | SK-MEL-5 > 100 µM | SNB-75 > 100 µM | TK-10 > 100 µM | U-251 > 100 µM

NC(=S)N/N=C1\C(=O)N(c2cccc([N+](=O)[O-])c2)C(=O)C1C(=O)Nc1cccc([N+](=O)[O-])c1 (configuration not stated)
inactive: 786-0 > 100 µM | A498 > 100 µM | EKVX > 100 µM | HCT-116 > 100 µM | IGROV-1 > 100 µM | K562 > 100 µM | LOX IMVI > 100 µM | M14 > 100 µM | MOLT-4 > 100 µM | SK-MEL-5 > 100 µM | SNB-75 > 100 µM | TK-10 > 100 µM | U-251 > 100 µM | UACC-257 > 100 µM

COC(=O)C(CC(=O)Nc1ccc(C)cc1)C(=O)C(=O)Nc1c(C(C)C)cccc1C(C)C (configuration not stated)
inactive: 786-0 > 100 µM | A498 > 100 µM | EKVX > 100 µM | HCT-116 > 100 µM | IGROV-1 > 100 µM | K562 > 100 µM | LOX IMVI > 100 µM | M14 > 100 µM | MOLT-4 > 100 µM | NCI-H460 > 100 µM | SNB-75 97.7 µM | TK-10 > 100 µM | U-251 > 100 µM
